Measured values published in US8722923B2, “Conjugates for treating neurodegenerative diseases and disorders” (Ramot at Tel-Aviv University Ltd., priority 2008, dated 2014).
“Also recorded” adds a separate entry of the source. Structures can show the parent of a compound that is named as a salt.

Key:
[1] = compared with other esters such as the ethyl or octyl esters; cited from earlier work
MPTP acute model mice [2] = test: Experiment 1: open field test, MPTP acute model (AN-490); assay type: in vivo, C57/BL/6J mice; conditions: for motility / motor activity in open field: MPTP treated mice, L-DOPA 25 mg/kg or AN-490 67.5 mg/kg by oral gavage, days 3, 6, 8, 16
Experimental: The MPTP neurotoxin was administered on day 0, with 4 IP injections (each injection contained 20 mg/kg, 5 ml/kg) in saline. The various treatments or saline were administered on days 0, 1, 2, 3, 6, 7, 13 and 16. Each group of mice (n=6) was subjected, on days 3, 6, 8 and 16, to the open field test, and the following parameters were scored: the distance moved (FIGS. 2A and 2B), velocity (FIGS. 2C and 2D), time spent immobile (FIGS. 2E and 2F) and time spent in a high level of mobility (FIGS. 2G and 2H; strong mobility) during a period of 20 minutes. FIGS. 2A, 2C, 2E and 2G present the data obtained for the control mice, mice treated with L-DOPA and mice treated with AN-490. FIGS. 2B, 2D, 2F and 2H present the data obtained for control mice or mice treated with MPTP, MPTP with L-DOPA and MPTP with AN-490.
Acute model: On day 1, C57/BL mice received 4× […] injections of 20 mg/kg MPTP-HCl (Sigma), dissolved in saline solution, at 2 hours intervals.
The open field test measures behavioral responses, locomotor activity, hyperactivity, and exploratory behaviors. Open field test is also used as a measure of anxiety. Mice tend to avoid brightly illuminated, novel, open spaces, so the open field environment acts as an anxiogenic stimulus and allows for measurement of anxiety-induced locomotor activity and exploratory behaviors. The apparatus for the open field test is a square (0.5×0.5 meter) made of white melamine. All activities were recorded by a video camera mounted above the open field and scored in real-time by a motion-recognition software package (Noldus, Holland) that detects and analyzes the movements of the animals. The video image of the open field arena was partitioned into equal-size squares zone. Total distance, average speed, rearing/elongation behavior, and time spent in various parts of the field (e.g. the border areas vs. mid-area) were measured. Testing was carried out in a temperature, noise and light controlled room.

[3] = Hygroscopicity of acid addition salts; assay type: physicochemical; conditions: acid addition salts as isolated
Source text: The hydrochloride salts of Compounds 6, 8a, 11, 13, 14, 16, 18 and 21 were identified as hygroscopic. […] The basis for this assumption was that the addition salt of an aromatic acid would be less hygroscopic than that of the corresponding hydrochloric acid addition salt. Thus, the butyl ester, Compound 20 was Boc-deprotected with 3 equivalents of benzenesulfonic acid in […].

[4] = tested on: MPTP sub-acute model mice; test: Experiment 2: tyrosine hydroxylase immunostaining of striatum and substantia nigra, MPTP sub-acute model; assay type: in vivo, C57/BL/6J mice; conditions: GABA 18.4 mg/kg, L-DOPA 30 mg/kg + GABA 18.4 mg/kg, AN-490 81 mg/kg per os, days 29-30
Experimental: Shown are microphotograph of the striatum and substantia-nigra of mice receiving saline (FIG. 8A, Naive), MPTP+saline (FIG. 8B, MPTP) MPTP+GABA.HCl 18.4 mg/kg (FIG. 8C, MPTP+GABA), MPTP+L-DOPA 30 mg/kg (FIG. 8D, MPTP+DOPA), MPTP+L-DOPA 30 mg/kg+GABA 18.4 mg/kg (FIG. 8E, MPTP+Dopa+GABA) and MPTP+AN-490 81 mg/kg (FIG. 8F, MPTP+AN490). Paraffin-embedded horizontal sections of the stratium and substantia nigra were stained with hematoxylan and Tyrosine Hyroxylase antibodies. The magnification is ×100 and in the insert ×200.
Animals under deep anesthesia were perfused through the aorta with phosphate-buffered saline (PBS), followed by a cold fixative consisting of 4% paraformaldehyde, 0.35% glutaraldehyde and 0.2% picric acid in phosphate buffer. After perfusion, the brain were removed and fixed in 4% paraformaldehyde for 24 hours, washed with PBS, dehydrated in increasing alcohol concentrations and embedded in paraffin. Paraffin-embedded tissues were processed as described [Rephaeli et al. Int J Cancer. 2005 Aug. 20; 116:226-35]. The avidin-biotin nonspecific binding was prevented by a blocking kit according to the manufacturer's protocol (Vector, USA). The sections were further incubated at 4° C. overnight with the primary antibody mouse monoclonal tyrosine hydroxylase (Visionbiosystem, Newcastle, UK, diluted 1:50). The secondary antibody was biotin conjugated goat anti-mouse IgG (Santa Cruz). Slides were then stained with ABC peroxidase system, developed with diaminobenzidine (DAB), chromogene substrate (Vector Laboratories, Inc. The slides were examined using an Olympus BX52 light microscope and images were taken with Olympus DP50 digital camera system. Images were analyzed by the ImagePro Plus 5.1 software. At least 12 different fields in each experimental group were analyzed. The Mean density±SEM was calculated for the striatum and the mean cell number±SEM was calculated for the SN.

[5] = tested on: MPTP sub-acute model mice; test: Experiment 2: observed vitality signs (level of motion, fur appearance), MPTP sub-acute model; assay type: in vivo, C57/BL/6J mice; on Fur, observer 1: key: Split fur +; Shiny fur +++; on Fur, observer 2: key: Split fur +; Shiny fur +++; on Fur, observer 3: key: Split fur +; Shiny fur +++; on Fur, observer 4: key: Split fur +; Shiny fur +++; on Vitality, observer 1: key: slow motions +; normal motion +++; on Vitality, observer 2: key: slow motions +; normal motion +++; on Vitality, observer 3: key: slow motions +; normal motion +++; on Vitality, observer 4: key: slow motions +; normal motion +++
Source text: FIG. […] 6 hereinabove. Six independent observers estimated the level of mice vitality by the level of motion of the mice (light purple, marked vitality) and fur appearance (dark purple). The results are an average of the observers' reports.

MPTP acute model mice [6] = test: Experiment 3: tyrosine hydroxylase immunohistochemistry of striatum and substantia nigra, MPTP acute model; assay type: in vivo, C57/BL/6J mice; conditions: overall conclusion
Experimental: FIG. 13 presents a bar graph showing the effect of BL-1023* administration on the neuronal density in the stratium, as assessed from Tyrosine Hydroxylase staining. Mice were administered the following treatments: saline (control), MPTP+saline (MPTP), MPTP+L-DOPA 30 mg/kg (MPTP+L-DOPA), MPTP+L-DOPA 30 mg/kg+GABA 18.4 mg/kg (MPTP+L-DOPA+GABA), MPTP+BL1023* 48.4 mg/kg (denoted MPTP+1023 30) and MPTP+BL-1023* 24.2 mg/kg (denoted MPTP+BL1023 15). The MPTP neurotoxin was administered on day 0, with 4 IP injections (each injection contained 20 mg/kg, 5 ml/kg) in saline. The various treatments or saline were administered on day 7, 9, 11 and 13 (total of 4 treatments). Three mice, from each treatment group, and four mice from the control group, were sacrificed on day 15 and subjected to immunohystochemistry for tyrosine hydroxylase of the stratium according to the protocol described in the Examples section hereinbelow. The intensity of Tyrosine Hyroxylase (TH) staining, in the striatum of the treated mice is presented as the average of Intensity Optical Density (IOD) and SE obtained for the total stained area.
FIG. 15 presents a bar graph showing the effect of BL-1023* administration on the neuronal density in the substantia nigra, as assessed from Tyrosine Hydroxylase staining. […]

[7] = listed as Compound 21, tri-hydrochloride
[8] = MPTP+AN-490 67.5 mg/kg, compared to the other tested groups
[9] = MPTP sub-acute model, per os treatment

SMILES | skin permeability [1] | motility / motor activity in open field (MPTP acute model mice [2]; [7]) | motility / motor activity in open field (MPTP acute model mice [2]; tri-hydrochloride) | strong mobility in open field (MPTP acute model mice [2]; [8]) | time spent immobile in open field (MPTP acute model mice [2]; [8]) | velocity in open field (MPTP acute model mice [2]; [8]) | hygroscopicity [3] | TH staining in the substantia nigra and striatum (IHC) [4, 7] | TH staining in the substantia nigra and striatum (IHC) ([4]; tri-hydrochloride) | Fur, observer 1 [5, 9] | Fur, observer 2 [5, 9] | Vitality, observer 1 [5, 9] | Vitality, observer 2 [5, 9] | Vitality, observer 3 [5, 9] | Vitality, observer 4 [5, 9] | vitality signs (fur appearance) ([5]; MPTP+AN-490 81 mg/kg per os) | protection of TH positive cells (MPTP acute model mice [6]) | TH staining in the substantia nigra and striatum (IHC) [4] | Fur, observer 3 [5, 9] | Fur, observer 4 [5, 9]
CCCCOC(=O)[C@@H](N)Cc1ccc(O)c(O)c1 [L-DOPA butyl ester] | better skin permeability | – | – | – | – | – | – | – | – | – | – | – | – | – | – | – | – | – | – | –
CCCCOC(=O)[C@@H](N)Cc1ccc(OC(=O)CCCN)c(OC(=O)CCCN)c1 [AN-490, Butyl-2-amino-3-(3,4-phenyl-di[4-aminobutanoate])propanoate tri-hydrochloride] | – | significant increase in motility | continuous increase in motor activity | highly mobile | immobile for a short time | highest velocity | hygroscopic | enhanced neuronal density | protection or restoration of the normal morphology; also recorded: TH protective activity | + | + | +++ | +++ | +++ | +++ | reduced vitality signs | – | – | – | –
NCCCC(=O)O [GABA, 4-amino-butyric acid] | – | – | – | – | – | – | – | – | – | +++ | – | +++ | +++ | +++ | +++ | – | protect the TH positive cells | protection or restoration of the normal morphology | +++ | +++
